Assay results reported in PMC9370283, “New Quinoxaline-Based Derivatives as PARP-1 Inhibitors: Design, Synthesis, Antiproliferative, and Computational Studies” (Molecules, 2022).

Tests used:
MDA-MB-436 cells [1] = test: cell cycle analysis, PI staining, flow cytometry; settings: IC50 concentration 2.57 µM, 48 h
Description: medium was used as a negative control.
(§1) Mean net fluorescent intensities (NFI) were quantified.

MDA-MB-436 cells [2] = test: Annexin V-FITC/PI apoptosis assay, flow cytometry; settings: IC50 concentration, 48 h
Description: medium was used as a negative control.
as §1

MDA-MB-436 cells [3] = test: Cyto-ID autophagy assay, flow cytometry; settings: IC50 value of compound, 24 h
Description: medium was used as a negative control.
as §1

WI-38 = test: cytotoxicity against normal cells, MTT assay, WI-38; format: cell-based; settings: Homo sapiens, normal cell line, read-out: IC50 (mean ± SEM) WI-38
Description: It has been reported that the frequency and severity of the side effects on normal healthy cells at therapeutic levels are deemed to be critical factors that distinguish different anticancer drugs from each other. […]
to the wells designated as “Blank”. The amount of PARP-1 required for the assay was then calculated. The reaction was initiated by adding 20 µL of diluted PARP-1 en zy me to the wells designated “Positive Control” and “Test Inhibitor Control”. The strip wells were incubated at room temperature for 1 hou r. The strip wells were then wash ed three times with 200 µL of PBST buffer.
Then, 50 µL of 50 times diluted Streptavidin-HRP with blocking buffer was added to each well, and the strips were further incubated at room temperature for 30 min. After washing the wells three times with 200 µL of PBST buffer, HRP colorimetric substrate was added to each well, and the plate was incubated at room temperature until a blue color was developed in the positive control well. Then, the reaction was quenched with 100 µL per well of 2 M sulfuric acid. Carrier solvent (DMSO 5%, v/v) was used as a negative control. All compounds including Ol ap arib were t ested at 5 concentrations (100, 10, 1, 0.1, and 0.01 µM). The optical density (OD) of each well was measured spectrophotometrically at 450 nm with an ELISA microplate reader (ChroMate-4300, FL, USA). The IC50 values were calculated according to the equation for Boltzmann sigmoidal concentration-response curves using the nonlin ear regression fitting model (GraphPad Prism Version 8). All assays were performed in triplicate in 3 repeated experiments. The obtained data are presented as means standard error of the means from 3 independent repeats (n = 3).
4.3.In vitro anticancer screening
The cell lines were purchased from the American Type Culture collection as follows:
Breast Cancer cell lines (MDA-MB-436) and WI38. Cytotoxic activity screening was performed using MTT assay. Exponentially, cells were placed in 10^4 cells/ well for 24 h, and then add fresh med ium containing different concen trations of the tested sample. Serial two-fold dilutions of the tested sample were added using a multichannel pipette. Moreover, all cells were cultivated at 37 °C, with 5% CO2 and 95% humidity. Also, incubation of control cells occurred at 3 7 ° C . […] Rinse the wells using water until no stain. After that, add 30% g lacial acetic acid to all wells with shaking plates on a Microplate reader (TECAN, Inc.) to measure the absorbance, using a test wavelength of 490 nm. Besides, compare the treated samples with the control cell. The cytotoxicity was estimated by IC50 in (μg /mL), the concentration that inhibits 50% of the growth of the examined cell.

PARP-1 = target: T1, PARP-1 (Homo sapiens, UniProt P09874); test: colorimetric 96-well PARP-1 assay kit (BPS Bioscience); format: biochemical
T1 construct: purchased BPS Bioscience 80580

MDA-MB-436 = test: in vitro cytotoxicity, MTT assay, MDA-MB-436; settings: for % viability MDA-MB-436: MTT lab report

T1 sequence (P09874 whole entry): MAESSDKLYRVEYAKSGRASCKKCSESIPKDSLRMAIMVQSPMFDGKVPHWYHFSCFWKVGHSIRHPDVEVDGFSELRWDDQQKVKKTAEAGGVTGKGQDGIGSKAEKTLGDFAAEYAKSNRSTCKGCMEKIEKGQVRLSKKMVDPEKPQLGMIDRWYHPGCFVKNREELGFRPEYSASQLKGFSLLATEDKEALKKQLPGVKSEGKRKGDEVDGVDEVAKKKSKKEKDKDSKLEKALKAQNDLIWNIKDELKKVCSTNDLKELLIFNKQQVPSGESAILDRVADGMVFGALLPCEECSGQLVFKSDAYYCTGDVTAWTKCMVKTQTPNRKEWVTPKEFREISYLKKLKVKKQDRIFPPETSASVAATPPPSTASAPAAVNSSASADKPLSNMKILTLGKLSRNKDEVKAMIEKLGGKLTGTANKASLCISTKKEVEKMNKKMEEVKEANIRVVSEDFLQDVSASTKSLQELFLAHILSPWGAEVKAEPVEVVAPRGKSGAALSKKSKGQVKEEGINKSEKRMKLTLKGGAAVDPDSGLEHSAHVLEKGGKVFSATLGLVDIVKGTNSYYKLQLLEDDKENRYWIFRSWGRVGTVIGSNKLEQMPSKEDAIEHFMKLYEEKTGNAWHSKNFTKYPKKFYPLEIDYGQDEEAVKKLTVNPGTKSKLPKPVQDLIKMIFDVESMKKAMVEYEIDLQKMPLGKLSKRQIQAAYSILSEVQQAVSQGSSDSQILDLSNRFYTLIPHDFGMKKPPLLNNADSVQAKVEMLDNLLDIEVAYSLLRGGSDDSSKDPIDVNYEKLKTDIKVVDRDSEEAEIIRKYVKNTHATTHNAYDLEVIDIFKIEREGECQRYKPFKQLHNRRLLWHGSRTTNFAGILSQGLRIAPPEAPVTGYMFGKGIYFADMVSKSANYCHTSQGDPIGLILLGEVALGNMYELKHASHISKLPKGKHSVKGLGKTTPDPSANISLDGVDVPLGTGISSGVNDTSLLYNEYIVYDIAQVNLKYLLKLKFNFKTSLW

SMILES: Cc1cc(C)n(S(=O)(=O)c2ccc3[nH]c(=O)c(=O)[nH]c3c2)n1 [Compound 5, 6-((3,5-Dimethyl-1H-pyrazol-1-yl)sulfonyl)-1,4-dihydroquinoxaline-2,3-dione]
- cell number in sub-G1 stage (MDA-MB-436 cells [1]; control 1.76%): 1.66%
- percentage of cells in G2 stage (MDA-MB-436 cells [1]; control 25.12%): 30.39%
- cell distribution in G1 phase (MDA-MB-436 cells [1]; control 51.96%): 40.89%
- normal intact cells (Q2-3) (MDA-MB-436 cells [2]): 96.98%
- early apoptotic cell population (Q2-4) (MDA-MB-436 cells [2]; control 0.14%): 0.27%
- late apoptotic cell population (Q2-2) (MDA-MB-436 cells [2]; control 0.98%): 1.02%
- necrotic cell population (Q2-1) (MDA-MB-436 cells [2]; control 1.11%): 1.72%
- increase of autophagic cell death (MDA-MB-436 cells [3]): 68.65%
- IC50 (WI-38): 81700 ± 1700 nM
- fold higher PARP-1 inhibitory activity than Olaparib (PARP-1; ratio of IC50 values): 1.5 fold
- IC50 (PARP-1; read-out: IC50 (mean ± SEM) PARP-1): 3.05 ± 0.16 nM
- SI (MDA-MB-436; MDA-MB-436, matches IC50 WI-38 / IC50 MDA-MB-436): 31.77
- % viability MDA-MB-436 (MDA-MB-436; log conc. 0.193 (1.6uM)): 53.46%
- % viability MDA-MB-436 (MDA-MB-436; log conc. 0.796 (6.3uM)): 45.17%
- % viability MDA-MB-436 (MDA-MB-436; log conc. 1.398 (25uM)): 37.05%
- % viability MDA-MB-436 (MDA-MB-436; log conc. 2 (100uM)): 28.36%
- % viability MDA-MB-436 (MDA-MB-436; log conc. -0.409 (0.4uM)): 60.26%
- IC50 (MDA-MB-436; read-out: IC50 (mean ± SEM) MDA-MB-436, mutant BRCA1 breast cancer cells, MTT): 2570 ± 150 nM
- times more potent than the reference drug (antiproliferative, MDA-MB-436) (MDA-MB-436; versus Olaparib): approximately 4 times
